Earlier results as cited in patent publication US20220117942A1, “COMBINATION THERAPY FOR THE TREATMENT OF PROSTATE CANCER” (Zenith Epigenetics Ltd., priority 2018, published 2022).

System: 2nd line mCRPC patients
Conditions: enzalutamide alone, comparison value

In the case of `CNC(=O)c1ccc(N2C(=S)N(c3ccc(C#N)c(C(F)(F)F)c3)C(=O)C2(C)C)cc1F` [enzalutamide], the “expected rPFS” value is given as 24-28 weeks.
